Experimental findings from US12290521B2, “Methods and materials for identifying and treating BET inhibitor-resistant cancers” (Mayo Foundation for Medical Education and Research, priority 2018, dated 2025) are described below.

This test relates to BRD4. The experiment in a line: ChIP-seq and ChIP-qPCR of BRD4 binding in C4-2 cells. It counts as cell-based, human. Conditions: control and SPOP-F133V C4-2 cells; JQ1 1 μM, 24 hours. How it is done: ChIP was performed as described elsewhere (Boyer et al., Cell, 122:947-956 (2005)). ChIP-seq libraries were prepared using the methods as described elsewhere (Boyer et al., Cell, 122:947-956 (2005)), and high throughput sequencing was performed using the Illumina HiSeq2000 platforms. The data were analyzed using the following pipeline: ChIP-seq raw reads were aligned to the human reference genome (GRCh37/hg19) using Bowtie2 (2.2.9), and reads mapped to one or two locations were kept for further analysis. Peak calling was performed by MACS2 (2.1.1) with p-value threshold of 1e-5. BigWig files were generated for visualization with the UCSC genome browser or IGV. GREAT (bejerano.stanford.edu/great/public/html/) was used to assign peaks to their potential target genes (a peak-gene association was determined if the peak fell into 2 kb region centering on the transcription start site of the gene). The common BRD4 target genes induced by SPOP F133V and HA-BRD4 expression were determined independently in each of two biological repeat experiments. Raw and processed data were deposited into NCBI Gene Expression Omnibus with accession number GSE88872.
For ChIP-qPCR experiments, DNAs pulled down by antibodies or non-specific IgG were amplified by real-time PCR. […]
In general terms: Quantitative PCR measures a nucleic acid by following its amplification.

On to `Cc1sc2c(c1C)C(c1ccc(Cl)cc1)=N[C@@H](CC(=O)OC(C)(C)C)c1nnc(C)n1-2` [JQ1], for which the “BRD4 binding in the AR gene promoter” value is “largely decreased” and the “BRD4 binding in the MYC gene enhancer” value is reported as “substantial reduction”.
